Source: PubChem BioAssay AID179 (DTP/NCI, 2004)
Values joined by “and” are separate entries in the source; they are usually repeats but may differ in a detail not shown here. Identical values can stand only once. Active and inactive are the calls of the source.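 Rule for the calls: active = compounds giving half or more protection of infected cells from virus-caused growth loss, again on retest; inactive = the rest.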

System: CEM cells HIV-1 protection, formazan growth assay
Test: NCI AIDS Antiviral Assay
Conditions: for IC50: measured here: growth of uninfected CEM cells
How it was run: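 Category rules: moderately active means at least 50% protection on retest, and confirmed active means 100% protection reproducibly. The underlying data came from a formazan growth assay in HIV-1-infected CEM cells.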

| Compound | outcome | EC50 [µM] | IC50 |
| --- | --- | --- | --- |
| CC(C)C1NC(=O)C(Cc2ccccc2)NC(=O)C2NC(=O)C(Cc3ccccc3)NC(=O)C3CCCN3C(=O)CNC(=O)C(Cc3ccccc3)NC(=O)C3CNCCCCC(C(=O)O)NC(=O)C4NC(=O)C(CC(N)=O)NC(=O)CNC(=O)C(C(O)C(=O)O)NC(=O)C(CSCC(NC(=O)C(CCC(N)=O)NC(=O)C(CCCNC(=N)N)NC(=O)C(N)CSC4C)C(=O)NC(CSC2C)C(=O)N3)NC1=O (stereo not drawn) | active | – | – |
| Cc1cn([C@H]2C[C@@H]3[C@@H](COC(C)(C[Se]c4ccccc4)N3O)O2)c(=O)[nH]c1=O (stereo partly drawn) | – | 50.1 | 162 µM |
| CN(C)CCN(C)CC1COC(C)(C)O1 (stereo not drawn) | inactive | – | – |
| Brc1cccc[n+]1Cc1ccccc1C[n+]1ccccc1Br | – | > 200 | > 200 µM |
| Nc1ccc(C(=O)NN2C(=O)C(Cl)C2c2ccc([N+](=O)[O-])cc2)cc1 (stereo not drawn) | – | > 200 | 4.07 µM |
| O=C1CCCC2=C1CC1=C(CCCC1=O)N2c1ccc([N+](=O)[O-])cc1 | – | > 200 | > 200 µM |
| COc1ccc(NS(=O)(=O)c2ccc3ncn(NS(=O)(=O)c4ccc(I)cc4)c(=O)c3c2)cc1 | inactive | – | – |
| Cc1ccc(S(=O)(=O)N(C=O)N=C2CCN(Cc3ccccc3)CC2)cc1 | – | > 61.7 | > 61.7 µM |
| CC(C(N)=O)N(C)C(=O)c1cc2ccccc2[n+](Cc2ccccc2)c1 (stereo not drawn) | inactive | – | – |
| NC(=S)C(=S)N/C=C/c1nc2ccccc2[nH]c1=O | – | > 200 | 7.94 µM |
| Clc1ccc2c(c1)Oc1ccccc1C=N2 | – | > 363 | 6.31 µM |
| CCOP(=O)(OCC)/C(C#N)=C/c1cn(C)cn1 | – | > 200 | > 200 µM |
| CC(C)(CO)C(O)C(=O)NCCCO (stereo not drawn) | – | > 200 | > 200 µM |
| CCOc1ccc(NC(=S)NC=C(C#N)C#N)cc1 | – | > 200 | > 200 µM |
| O=C(Nc1ccccc1C(=O)NCCCO)/C(=C/c1ccccc1O)NC(=O)c1ccccc1 | – | > 200 | > 200 µM |
| O=C(CCCCCCCCC(=O)OCC1OC(n2cnc3c(=O)[nH]cnc32)C(O)C1O)OCC1OC(n2cnc3c(=O)[nH]cnc32)C(O)C1O (stereo not drawn) | – | > 355 | > 355 µM |
| CCCc1cc(=O)oc2c3c(cc(OC)c12)O[C@H](C)[C@@H](C)[C@@H]3O | – | > 200 | – |
| O=C(/C=C/c1ccc(Cl)cc1)NC1C=Nc2ccc([N+](=O)[O-])cc2NC1=O (stereo not drawn) | – | > 200 | > 200 µM |
| c1ccc(COCC2OC3c4ccccc4COC3C2OCc2ccccc2)cc1 (stereo not drawn) | inactive | – | – |
| COc1ccc(Cn2nc(OCc3ccccn3)c3cc([N+](=O)[O-])ccc32)cc1 | – | > 200 | > 200 µM |
| O=[N+]([O-])C1C=Nc2ccccc2N=C1 | – | > 200 | > 200 µM |
| CC1=C(C(=O)Nc2ccccc2C)C(c2ccco2)C(C(=O)Nc2ccccc2C)=C(C)N1C | – | > 21.9 | > 21.9 µM |
| O=c1oc2ccccc2c(O)c1C1c2ccccc2Oc2c1c(=O)oc1ccccc21 (stereo not drawn) | inactive | – | – |

| Compound | outcome | EC50 [µM] | IC50 |
| --- | --- | --- | --- |
| COC(=O)c1cc(C(=CCCCCBr)c2cc(Cl)c(OC)c(C(=O)OC)c2)cc(Cl)c1OC | – | 45.7 | 151 µM |
| N#CC1(C#N)C(c2ccccc2)C=CC12OCCCO2 (stereo not drawn) | inactive | – | – |
| O=C(N/N=C(\c1ccccc1)c1ccccn1)NC1CCCCC1 | inactive | – | – |
| O=C1/C(=C/c2ccc([N+](=O)[O-])cc2)Oc2cc(O)ccc21 | – | > 200 | 35.5 µM |
| CC1(C)O[C@H]2OC(CO[Si](C)(C)C(C)(C)C)C(N=[N+]=[N-])[C@H]2O1 (stereo partly drawn) | – | > 20 | > 20 µM |
| NC(=O)C(O)C(O)C(N)=O (stereo not drawn) | – | > 457 | > 457 µM |
| CC(C)/C=N\N1C(N)=C(C#N)C(C#N)(C#N)C1C(C)C (stereo not drawn) | – | > 200 | 41.7 µM |
| O=c1c2cc(Cl)ccc2sc2cccc(Cl)c12 | – | > 1.35 | > 1.35 µM |
| COc1ccc(/C=C2/CCCC/C2=N/O)cc1 | – | > 295 | 182 µM |
| CC(C)(C)C1CCC(=O)C(C(O)CC2CC(=O)N(c3ccccc3)C(=O)C2)C1 (stereo not drawn) | – | > 200 | > 200 µM |
| Cn1c(=O)c2c(nc(Nc3ccc(Cl)cc3)n3c(=O)n(-c4ccccc4)c(=O)n23)n(C)c1=O | – | > 200 | 145 µM |
| CCOC(=O)/C(O)=C/c1nc2ccccc2nc1C | – | > 46.8 | > 46.8 µM |
| O=c1oc2ccccc2c(O)c1C1c2c(c3ccccc3oc2=O)Oc2c1c(=O)oc1ccccc21 | inactive | – | – |
| Nc1nc2c(ncn2CC2CCOC2=O)c(=O)[nH]1 (stereo not drawn) | inactive | – | – |
| CC(SCCCCCCSC(C)C(=O)O)C(=O)O (stereo not drawn) | – | > 851 | > 851 µM |
| COC(=O)/C=C/CC(=O)NS(C)(=O)=O | – | > 200 | > 200 µM |
| CC(C)=CCCC1(C)C=Cc2c(c(C)cc3c2[nH]c2ccccc23)O1 (stereo not drawn) | – | > 21.9 | 12 µM |
| N#Cc1ccccc1SSc1ccccc1C#N | – | > 200 | 11.7 µM |
| C/C(=N\NC(N)=O)c1ccc(Cl)cc1 | – | > 123 | > 123 µM |
| COC(=O)C(N=O)C(=O)OC | inactive | – | – |
| S=c1[nH]ncc(SCc2ccccc2)c1SCc1ccccc1 | – | > 200 | 13.2 µM |
| CN(C)CCC(O)(c1ccccc1)C(O)(CCN(C)C)c1ccccc1 (stereo not drawn) | – | > 72.4 | > 72.4 µM |
| O=[N+]([O-])c1ccc(C(O)(C#CCN2CCCC2)c2ccccc2)cc1 (stereo not drawn) | – | > 200 | > 100 µM |

| Compound | outcome | EC50 [µM] | IC50 |
| --- | --- | --- | --- |
| CCCc1cc(=O)c2c(C)c3[nH]c4ccc(Cl)cc4c3c(C)c2[nH]1 | – | > 200 | 11 µM |
| Clc1cc(Cl)c2nncc(N3CC3)c2c1 | inactive | – | – |
| COc1ccc(CNc2nc3ccccc3nc2-c2cccs2)cc1OC | – | > 19.1 | 17 µM |
| O=c1[nH]c(-c2ccccc2)nc2cc([N+](=O)[O-])c(/C(Cl)=C/c3ccccc3)cc12 | inactive | – | – |
| CC1CCCC/C1=N/NS(=O)(=O)c1ccc(N)cc1 (stereo not drawn) | – | > 240 | > 240 µM |
| CCOP(=O)(/C=C/c1cc(OC)ccc1OC)OCC | – | > 832 | 355 µM and 158 µM |
| CC(N)(CC(O)(C(F)(F)Cl)C(F)(F)Cl)C(=O)O (stereo not drawn) | – | > 200 | > 200 µM |
| O=C1Oc2ccccc2C(=O)/C1=C1/C=C(c2ccccc2)SS1 | – | > 200 | > 200 µM |
| O=C(Nn1cc(F)c(=O)[nH]c1=O)C12CC3CC(CC(C3)C1)C2 | – | > 200 | 8.91 µM |
| O=C(Nc1nc2ncn(CCNCc3ccccc3)c2c(=O)[nH]1)c1ccccc1 | – | > 174 | 105 µM |
| CCOP(=O)(OCC)/C(C#N)=C\c1ccccc1 | – | > 355 | > 355 µM |
| COc1ccc(S(=O)Cc2cc(OC)ccc2OC)cc1 (stereo not drawn) | inactive | – | – |
| CCO/C=N/C1=C(C#N)C(c2ccc(OC)c(OC)c2)c2c(-c3ccccc3)nn(-c3ccccc3)c2O1 (stereo not drawn) | – | > 100 | 14.1 µM |
| O=C1c2ccccc2N2OC3(N4CCCC4)CCCCC3C12c1ccccc1 (stereo not drawn) | – | > 10 | > 10 µM |
| CC1(C)CC(=O)C2(CC(CSc3ccccc3)C(CS(=O)(=O)c3ccccc3)C2)C(=O)C1 (stereo not drawn) | – | > 200 | > 200 µM |
| c1ccc2c(c1)c1c(n2CCOCCN2CCCC2)CCCC1 | – | > 200 | 9.55 µM |
| O=C1C2CCc3cnn(-c4ccccc4)c3C2C(=O)N1c1ccccc1 (stereo not drawn) | – | > 200 | > 200 µM |
| C/C(=C\O[Si](C)(C)C)c1ccccc1 | – | > 200 | > 200 µM |
| C=CCCC(=O)CC(=O)OC | – | > 1580 | > 1580 µM |
| CCOC(=O)C1=C(C)N(C2OC(COC(=O)c3ccccc3)C(OC(=O)c3ccccc3)C2OC(=O)c2ccccc2)C(=S)NC1c1ccccc1 (stereo not drawn) | – | > 50.1 | > 50.1 µM |
| Cc1noc(NS(=O)(=O)c2ccc(NC(=O)c3ccc4[nH]c5ccccc5c(=O)c4c3)cc2)c1C | – | > 200 | 44.7 µM |
| N/N=C1/CCN2CCCc3cccc1c32 | – | > 200 | 182 µM |
| COc1cc2c(=O)cnoc2cc1O | – | > 200 | 26.3 µM |

| Compound | outcome | EC50 [µM] | IC50 |
| --- | --- | --- | --- |
| CC(C)C(OC(=O)c1cc(NC(=S)c2cccn2C)ccc1Cl)C(C)C | – | 0.234 | 18.2 µM |
| Cc1ccc(S(=O)(=O)NC(=O)NCCSSCCNC(=O)NS(=O)(=O)c2ccc(C)cc2)cc1 | – | > 200 | > 200 µM |
| O=C(CSc1nnc(Cc2ccccc2)o1)Nc1cccc(Cl)c1 | – | > 100 | 49 µM |
| Cc1ccc(C(=O)/C=C/c2cccc([N+](=O)[O-])c2)cc1 | – | > 37.2 | > 37.2 µM |
| Cc1cc(N(CCC#N)CCC#N)ccc1N=Nc1ccc(Br)cc1 | – | > 6.92 | > 6.92 µM |
| CCOC(=O)c1ccc(N2C(=S)N(C(=O)c3ccccc3)C(=Nc3ccccc3)C2=Nc2ccccc2)cc1 | – | > 200 | 2.82 µM |
| C=C(CC(=O)Nc1ccc(C(=O)OC)o1)C(=O)OC | – | > 200 | 3.89 µM |
| NCCCCC(=O)c1cccnc1 | – | > 1000 | 501 µM |
| [O-][n+]1onc2ncccc21 | – | > 138 | 19.5 µM |
| CN(NC(=O)/C(=C\c1ccccc1Cl)NC(=O)c1ccccc1)c1cn[nH]c(=O)c1Cl | – | > 100 | 52.5 µM |
| C[C@@H](O)CCC(=O)c1ccoc1 | – | > 1480 | > 1480 µM |
| CCCNC(=O)N(C(C)(C)C)S(=O)(=O)c1ccc(Cl)cc1 | inactive | – | – |
| N/C(=C\c1ccc(OCc2ccccc2)c(OCc2ccccc2)c1[N+](=O)[O-])C(=O)O | inactive | – | – |
| O=[N+]([O-])c1ccc2occ3c2c1CCC3 | – | 67.6 | 263 µM |
| N[C@H]1CCC[C@@H](O)C1O (stereo partly drawn) | – | > 200 | > 200 µM |
| O=c1cc(S(=O)(=O)Cc2ccccc2)[nH]c(=O)[nH]1 | – | > 135 | > 135 µM |
| O=C(CCC(NC(=O)OCc1ccccc1)C(=O)OCc1ccccc1)Nc1ccc(OCc2ccccc2)cc1 (stereo not drawn) | – | > 200 | 126 µM |
| CN1C(=O)CC(c2cccc(C3CC(=O)N(C)C3=O)n2)C1=O (stereo not drawn) | – | > 832 | > 832 µM |
| NC(=O)n1ncc(Cl)c(Cl)c1=O | – | > 91.2 | 47.9 µM |
| CCC(=O)CCC1=Nc2nnc(CCCCc3nnc4n3C(=O)C(CCC(=O)CC)=N4)n2C1=O | – | 427 | 537 µM |
| CCC1(O)CN(CCOC)[C@H]2C[C@@H]1C(=O)c1[nH]c3ccccc3c12 (stereo partly drawn) | – | > 200 | > 200 µM |
